Test results taken from US4707468A, “Polypeptide” (Eisai Co., Ltd., priority 1984, dated 1987).

Key:
mice = test: Toxicity (minimum lethal dose) in mice; type: in vivo; conditions: administered subcutaneously in mice
Source text: The relationship between the toxicity (minimum lethal dose) of the peptide compound obtained in Examples 1 and 2 of the present invention and the effective dose is shown in Table 4.
Effective dose and minimum lethal dose
when administered subcutaneously in mice

rabbit vas deferens = test: Opioid activity, rabbit vas deferens method (inhibition of electrically stimulated contraction); type: cell-based; conditions: electric stimulation 0.1 Hz, 1 ms, 90 volt
Protocol: The opioid activities of the compounds of the invention were examined by the method using rabbit vas deferens according to T. Oka, K. Negishi, M. Suda, T. Matsumiya, T. Inaza and M. Ueki, "Europ. J. Pharmacol.", Vol. 73, 235 (1980). In this test, mature male rabbits were sacrificed by introducing air into an […]. Immediately after death, a laparotomy was conducted and right and left vasa deferens were removed. The semen was pressed out of the ducts into Ringer's solution. A part of each duct was cut ([…] long from an end of the prostrate gland side). The pieces of the deferentaial ducts were suspened by means of a thread in a 6 ml constant-temperature glass cell and stimulated electrioally with an electric stimulation device having platinum electrodes under conditions of 0.1 Hz, 1 ms and 90 volt. A contraction due to the electric stimulation was recorded through a transducer.
The opioid activity was determined on the basis of the inhibition of the contraction due to the electric stimulation.
The results are shown in Table 3 in terms of 50% inhibitation concentration (IC50).
The following compounds obtained in the examples ere tested in the same way as described above.

Compound	Minimum Lethal Dose (mice) [mg/kg]	IC50 (rabbit vas deferens) [nM]
CCNC(=O)[C@@H](CC(C)C)NC(=O)[C@H](CCCNC(=N)N)N(C)C(=O)[C@H](CCCNC(=N)N)NC(=O)[C@H](CC(C)C)NC(=O)[C@H](Cc1ccccc1)NC(=O)CNC(=O)CNC(=O)[C@H](Cc1ccc(O)cc1)NC [Example 1, CH3 Tyr-Gly-Gly-Phe-Leu-Arg-CH3 Arg-D-Leu-NHC2 H5]	100	–
CN[C@@H](Cc1ccc(O)cc1)C(=O)NCC(=O)NCC(=O)N[C@@H](Cc1ccccc1)C(=O)N[C@@H](CC(C)C)C(=O)N[C@@H](CCCNC(=N)N)C(=O)N(C)[C@@H](CCCNC(=N)N)C(=O)N[C@H](C)C(=O)O [Example 30, CH3 Tyr-Gly-Gly-Phe-Leu-Arg-CH3 Arg-D-Ala-OH]	> 100	–
CN[C@@H](Cc1ccc(O)cc1)C(=O)NCC(=O)NCC(=O)N[C@@H](Cc1ccccc1)C(=O)N[C@@H](CC(C)C)C(=O)N[C@@H](CCCNC(=N)N)C(=O)N(C)[C@@H](CCCNC(=N)N)C(=O)N(C)[C@@H](C)C(=O)O [Example 31, CH3 Tyr-Gly-Gly-Phe-Leu-Arg-CH3 Arg-CH3 Ala-OH]	> 100	–
CC[C@H](C)[C@@H](C(=O)O)N(C)C(=O)[C@H](CCCNC(=N)N)N(C)C(=O)[C@H](CCCNC(=N)N)NC(=O)[C@H](CC(C)C)NC(=O)[C@H](Cc1ccccc1)NC(=O)CNC(=O)CNC(=O)[C@H](Cc1ccc(O)cc1)NC [Example 36, CH3 Tyr--Gly--Gly--Phe--Leu--Arg--CH3 Arg--CH3 Ile--OH]	> 100	–
H-Tyr-Gly-Gly-Phe-Leu-Arg-Arg-Ile-Arg-Pro-Lys-Leu-Lys-Trp-Asp-Asn-Gln-OH [dynorphin A (1-17)]	–	17.4
